Three compounds from patent US10550096B2, “Tetrahydroisoquinolines as PRMT5 inhibitors” (CTXT PTY LTD, priority 2016, dated 2020) can be followed below.

pIC50: −log10 of the molar value. Counter-ions that a name gives are not always drawn.

Assay [1] has as its target Full-length PRMT5 enzyme co-expressed with His6-MEP50 (Homo sapiens (Human), UniProt O14744). Kind of assay: PRMT5 Biochemical Assay. As to conditions: histone H4 derived peptide substrate 1 μM, 1 μM S-Adenosyl methionine, 4 hours at 37 degree Celsius, Transcreener EPIGEN fluorescence polarisation. The procedure:
Compounds of the invention may be tested for in vitro activity in the following assay:
A histone H4 derived peptide is used as substrate (amino acid sequence: […]NH2). Full-length PRMT5 enzyme (NCBI Reference sequence NP_006100.2) was co-expressed with His6-MEP50 in insect cells and purified via Nickel immobilized metal affinity and gel filtration chromatography (“the enzyme”).
The 6 μL reactions are run in Greiner brand black 384-well low volume assay plates. All reactions contained assay buffer (phosphate buffered saline, 0.01% (v/v) Tween-20, 0.01% (w/v) albumin from chicken egg white, 1 mM Dithiothreitol, 1 μM peptide substrate, 1 μM S-Adenosyl methionine, and 15 ng/reaction enzyme, with the enzyme being omitted from negative control reactions. Compounds were added in a volume of 100 nL from dilution series prepared in DMSO, positive and negative control reactions receiving the same volume DMSO without compound. The plates were sealed with adhesive seals and incubated for 4 hours at 37 degree Celsius. Reaction progress was measured using the Transcreener™ EPIGEN methyltransferase assay (BellBrook Labs, Madison, Wis.) as recommended by the manufacturer. To each reaction 2 μL detection mix were added, containing coupling enzymes, fluorescence polarisation tracer, and AMP antibody. Plates were incubated for 90 minutes before being read on a PerkinElmer EnVision™ plate reader in fluorescence polarisation mode. IC50 values were obtained from the raw readings by calculating percent inhibition (% I) for each reaction relative to controls on the same plate (% I=(I−CN)/(CP−CN) where CN/CP are the averages of the negative/positive reactions, respectively), then fitting the % I data vs. compound concentration [I] to % I=(A+((B−A)/(1+((C/[I])^D)))) where A is the lower asymptote, B is the upper asymptote, C is the IC50 value, and D is the slope.
(In fluorescence polarisation assays a small probe gives low polarisation when free and higher when bound to something large.)

For another assay, the system named is TE11 cells. The assay is described as follows: PRMT5 Biomarker Assay (symmetrical dimethylation of arginine, Histone H4 Arginine 3). Format: cell-based. As to conditions: Homo sapiens, TE-11; TE11 cell line, 72 hours incubation, Di-Methyl Histone H4 Arginine 3 level, high content imaging. Here is the method:
Compounds of the invention may be tested for potency to inhibit symmetrical dimethylation of arginine in the following assay:
The cell line TE11 was seeded at a density of 6,000 cells per well in 96 well optical quality tissue culture plates in DME medium and 10% foetal bovine serum, and allowed to adhere for 5 hours under standard culture conditions (37 degree Celsius, 5% CO2). Compound dilutions prepared in DMSO were added to the medium, with negative control wells reserved for treatment with DMSO only and maximum inhibition controls receiving a potent PRMT5 inhibitor compound at 1 μM concentration. After incubation for 72 hours, the cells were fixed with 3.7% formaldehyde in PBS for 30 minutes at room temperature, washed with phosphate buffer saline and blocked with Odyssey blocking buffer (LI-COR, Lincoln, Nebr.). Rabbit anti-Di-Methyl Histone H4 Arginine 3 specific antibody (Epigentek) in Odyssey blocking buffer was added and incubated for 14 hours at 4 degree Celsius. […] Plates were washed and read on a PerkinElmer Envision 2103 in fluorescence intensity scanning mode (24 scans across the well area). […] Using a Columbus image analysis pipeline, individual nuclei were located by Hoechst 33342 stain and the methylation level was calculated from the Alexa647-related intensity in the same area. […]

Chain of Full-length PRMT5 enzyme co-expressed with His6-MEP50 (O14744 whole entry): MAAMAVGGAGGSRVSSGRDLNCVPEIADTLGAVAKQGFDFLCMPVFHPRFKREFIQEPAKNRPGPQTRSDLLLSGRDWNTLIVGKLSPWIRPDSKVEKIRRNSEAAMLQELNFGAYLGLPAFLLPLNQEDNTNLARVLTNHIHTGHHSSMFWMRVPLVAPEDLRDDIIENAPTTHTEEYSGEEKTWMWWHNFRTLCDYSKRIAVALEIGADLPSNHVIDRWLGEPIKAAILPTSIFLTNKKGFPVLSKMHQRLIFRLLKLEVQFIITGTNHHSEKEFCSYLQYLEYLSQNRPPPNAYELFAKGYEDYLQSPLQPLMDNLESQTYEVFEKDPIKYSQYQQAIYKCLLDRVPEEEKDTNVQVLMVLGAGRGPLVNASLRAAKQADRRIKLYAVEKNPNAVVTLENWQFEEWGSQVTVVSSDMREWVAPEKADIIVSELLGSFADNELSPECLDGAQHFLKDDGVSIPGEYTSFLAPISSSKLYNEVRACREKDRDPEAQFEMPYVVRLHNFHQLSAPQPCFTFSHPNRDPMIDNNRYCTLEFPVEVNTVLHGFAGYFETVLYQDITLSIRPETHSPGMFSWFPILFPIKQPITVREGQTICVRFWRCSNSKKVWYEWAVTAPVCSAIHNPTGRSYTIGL
Chain of Full-length PRMT5 enzyme co-expressed with His6-MEP50 (Q9BQA1 whole entry partner): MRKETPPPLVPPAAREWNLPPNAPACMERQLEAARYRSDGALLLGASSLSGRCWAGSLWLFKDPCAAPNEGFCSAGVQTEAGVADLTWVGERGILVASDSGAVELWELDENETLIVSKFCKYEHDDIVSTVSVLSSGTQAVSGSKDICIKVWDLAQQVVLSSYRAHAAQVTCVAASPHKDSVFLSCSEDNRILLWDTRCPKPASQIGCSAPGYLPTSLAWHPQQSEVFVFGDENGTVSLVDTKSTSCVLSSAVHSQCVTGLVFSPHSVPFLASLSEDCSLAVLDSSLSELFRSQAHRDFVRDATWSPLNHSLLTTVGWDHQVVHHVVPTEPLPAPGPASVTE

For `O=C(c1ccc2c(=O)n(C[C@@H](O)[C@@H]3Cc4ccccc4CN3)ccc2c1)N1C2CCC1COC2` [Example 1, 6-(3-Oxa-8-azabicyclo[3.2.1]octane-8-carbonyl)-2-((R)-2-hydroxy-2-((S)-1,2,3,4-tetrahydroisoquinolin-3-yl)ethyl)isoquinolin-1(2H)-one hydrochloride], the negative logarithm of the IC50 (pIC50) (usually −log10 of the IC50, conventionally taken in molar units) is 6.27 in assay [1] and 6.37 in the assay on TE11 cells.
Turning to `Cc1nn(C[C@@H](O)[C@@H]2Cc3ccccc3CN2)c(=O)c2ccccc12` [Example 2, 2-((R)-2-Hydroxy-2-((S)-1,2,3,4-tetrahydroisoquinolin-3-yl)ethyl)-4-methylphthalazin-1(2H)-one hydrochloride], the pIC50 in assay [1] was 5.14.
In the case of `CCc1nn(C[C@@H](O)[C@@H]2Cc3ccccc3CN2)c(=O)c2ccc(C(=O)N3C4CCC3COC4)cc12` [Example 3, 6-(3-Oxa-8-azabicyclo[3.2.1]octane-8-carbonyl)-4-ethyl-2-((R)-2-hydroxy-2-((S)-1,2,3,4-tetrahydroisoquinolin-3-yl)ethyl)phthalazin-1(2H)-one hydrochloride], the negative-log IC50 (pIC50) in assay [1] is 7.41; in the assay with TE11 cells it was 9.00.
